Assay results published in US20260000658A1, “METHODS FOR THE TREATMENT OF PROLIFERATIVE GLOMERULONEPHRITIS” (INSTITUT NATIONAL DE LA SANTÉ ET DE LA RECHERCHE MÉDICALE, priority 2022, published 2026).

Legend:
Assay type in all cases: in vivo, mouse
PIK3CA^Pod-HET mice = PIK3CA^Pod-HET mice treated orally with alpelisib
Procedure: (§1) For the uninephrectomy experiments, the right kidneys were removed under anesthesia. For the medical treatment of mice, 50 mg kg −1 alpelisib (MedChem Tronica) in 1% carboxymethylcellulose (Sigma Aldrich)+0.5% Tween (Sigma Aldrich) or vehicle (1% carboxymethylcellulose+0.5% Tween) was administered by oral gavage daily for the indicated periods of time. Blood and urines were obtained at the indicated times. At euthanasia, blood, urines, kidneys were harvested. In some experiments, spleens, hearts, and bone marrow (BM) in femurs and tibias were harvested as well. Tissues were fixed in 4% paraformaldehyde and paraffin embedded for immunohistochemical analysis, snap-frozen in Optimal Cutting Temperature (OCT), or stored at −80° C. for mRNA or protein analysis.
(§2) Mouse blood counts were analyzed using a hematology analyzer (ProCyte Dx; IDEXX Laboratories). Mouse serum creatinine, blood urea nitrogen, urinary albumin, and urinary creatinine were evaluated using an AU5800 (Beckman Coulter) autoanalyzer. Serum anti-dsDNA measurement was performed according to the manufacturer's instruction using mouse anti-dsDNA ELISA kit (LBIS). The absorbance was measured using Ininite M Nano (TECAN).
(§3) 4-μm kidney sections were stained with periodic acid-Schiff (PAS), Masson's Trichrome (MT), Periodic acid metenamine silver (PAM) or Hematoxylin and Eosin (HE) staining for histological analysis. The degree of glomerular lesions was evaluated using the following scoring system: 0=no lesion, 1=affecting up to 25% of the glomerulus, 2=affecting 25-50% of the glomerulus, 3=affecting 50-75% of the glomerulus, and 4=affecting 75-100%. At least 50 glomeruli per sample were measured for each analysis. An indirect immunoperoxidase method was used for immunohistochemistry. Briefly, after deparaffinization, antigen retrieval was performed with citrate buffer (pH6) or Tris-EDTA buffer (pH9 or pH6) using microwave or high temperature (95° C.). Endogenous peroxidase activity was quenched using 3% hydrogen peroxide; nonspecific protein binding was blocked using 2.5% normal horse serum (Vector Laboratories), and endogenous biotin activity was quenched using the Avidin/Biotin Blocking Kit (Vector Laboratories). When using mouse primary antibodies on mouse tissue, Klear mouse blocking reagent (Diagomics) was used to block endogenous mouse immunoglobulins. After blocking, the tissue sections were incubated with the primary antibodies overnight at 4° C. The following primary antibodies were used: rabbit anti-Ki67 antibody (SP6; Thermo Fisher Scientific), rabbit anti-P-S6RP antibody (D68F8; Cell Signaling Technology), mouse anti-P-AKT (Ser473) antibody (587F11; Cell Signaling Technology), rabbit anti-P-AKT (Thr308) antibody (C31E5E; Cell Signaling Technology), mouse anti-S6RP antibody (54E2; Cell Signaling Technology), chicken anti-GFP antibody (Abcam), guinea pig anti-Nephrin antibody (GP-N2; Progen), rabbit anti-Podocin antibody (P0372; Sigma Aldrich), mouse anti-WTI antibody (6F-H2; DAKO). The corresponding secondary antibodies including anti-mouse IgG, anti-rabbit IgG, anti-guinea pig IgG, biotinylated anti-rabbit IgG (Vector Laboratories), and biotinylated anti-mouse IgG (Vector Laboratories) were applied. For Avidin/Biotin detection, an R.T.U. Vectastain Kit (Vector Laboratories) or streptavidin (Thermo Fisher Scientific) was used. The immunoreactive antigens sites were detected with hydrogen peroxide and diaminobenzidine. […]

PIK3CA^Pod-HO mice = PIK3CA^Pod-HO mice pilot study, vehicle or alpelisib; conditions: 3 months old
Procedure: as §1, §2, §3

Tg26^HE mice = Tg26^HE mice (collapsing glomerulopathy model), vehicle or alpelisib for 8 weeks; conditions: 8 weeks treatment
Procedure: as §1, §2
as §3, with “diaminobenzidine. For frozen immunofluorescent staining, frozen tissue sections (4 μm) were briefly air dried and fixed in 50% methanol/50% acetone. The sections were then blocked with 2.5% normal horse serum and incubated with primary antibodies: guinea pig anti-Nephrin antibody (GP-N2; Progen) overnight at 4° C. The sections were then incubated at room temperature for 40 min with secondary antibodies: fluorescein isothiocyanate-conjugated (FITC) anti-mouse IgG (Sigma Aldrich), FITC anti-mouse IgM (BD Biosciences), or FITC anti-mouse C3 antibody (abcam).” for “diaminobenzidine.”

MRL-lpr mice = MRL-lpr mice (lupus nephritis model) treated from 8 weeks old till death
Source text: A. Urinary albumin to creatinine ratio B. Blood urea nitrogen level, C. kidney to body weight ratio of NZBWF1/J mice at the time of sacrifice (4 weeks following either sham operation or uninephrectomy followed by the treatment either with vehicle or alpelisib) (n=5-15 mice per group). D. Representative P-S6RP/Nephrin coimmunofluorescence staining of kidneys from 4 weeks following either sham operation or uninephrectomy followed by the treatment either with vehicle or alpelisib) (n=4-6 mice per group). Scale bar […]. E. P-S6RP mean intensity quantification (n=4-6 mice per group). F. Col3a, G. Col1a, and H. Tnfα quantification of qRT-PCR analysis in the kidney cortex of kidneys at the time of sacrifice (4 weeks following either sham operation or uninephrectomy followed by the treatment either with vehicle or alpelisib) (n=5-15 mice per group). I. Kaplan-Meier survival curves of MRL-lpr mice treated either with vehicle or alpelisib (n=13-14 mice per group). J. Urinary albumin to creatinine ratio of MRL-lpr mice treated either with vehicle or alpelisib from 8 weeks old till death (n=13-14 mice per group). K. Vehicle treated mice, and L. alpelisib treated mice of the trajectory of urinary albumin to creatinine ratio of MRL-lpr mice (n=13-14 mice per group).
as §1, §2
4-μm kidney sections were stained with periodic acid-Schiff (PAS), Masson's Trichrome (MT), Periodic acid metenamine silver (PAM) or Hematoxylin and Eosin (HE) staining for histological analysis. The degree of glomerular lesions was evaluated using the following scoring system: 0=no lesion, 1=affecting up to 25% of the glomerulus, 2=affecting 25-50% of the glomerulus, 3=affecting 50-75% of the glomerulus, and 4=affecting 75-100%. At least 50 glomeruli per sample were measured for each analysis. An indirect immunoperoxidase method was used for immunohistochemistry. Briefly, after deparaffinization, antigen retrieval was performed with citrate buffer (pH6) or Tris-EDTA buffer (pH9 or pH6) using microwave or high temperature (95° C.). Endogenous peroxidase activity was quenched using 3% hydrogen peroxide; nonspecific protein binding was blocked using 2.5% normal horse serum (Vector Laboratories), and endogenous biotin activity was quenched using the Avidin/Biotin Blocking Kit (Vector Laboratories). When using mouse primary antibodies on mouse tissue, Klear mouse blocking reagent (Diagomics) was used to block endogenous mouse immunoglobulins. After blocking, the tissue sections were incubated with the primary antibodies overnight at 4° C. […]

[1] = 3 months old mice, oral, 2-3 weeks

**Q.** Which results are given for Cc1nc(NC(=O)N2CCC[C@H]2C(N)=O)sc1-c1ccnc(C(C)(C)C(F)(F)F)c1 [alpelisib, Alpelisib]?
**A.** albuminuria (PIK3CA^Pod-HET mice; [1]): progressive reduction in albuminuria; glomerular AKT/mTOR pathway (PIK3CA^Pod-HET mice; [1]): glomerular inhibition of the AKT/mTOR pathway; podocyte size (PIK3CA^Pod-HET mice; [1]): podocyte size reduction; gene expression anomalies (scRNA-seq) (PIK3CA^Pod-HET mice; alpelisib-treated PIK3CA^Pod-HET mice): correction of various gene expression anomalies; podocyte populations (scRNA-seq of kidney cells) (PIK3CA^Pod-HET mice; alpelisib-treated, untreated PIK3CA^Pod-HET 23.7%, WT about 10%): 11.7%; albuminuria (PIK3CA^Pod-HO mice; 2 consecutive weeks): progressive albuminuria reduction; AKT/mTOR pathway in podocytes (PIK3CA^Pod-HO mice; 2 weeks): blunted; glomerulus proliferation (Ki67) (PIK3CA^Pod-HO mice; 2 weeks): decrease in glomerulus proliferation; podocyte differentiation markers, protein levels (PIK3CA^Pod-HO mice; 2 weeks): still expressed; glomeruli, kidney histological analysis (PIK3CA^Pod-HO mice; 2 weeks, vs vehicle): preserved glomeruli; albuminuria (Tg26^HE mice; 4 weeks old, vs vehicle): lower albuminuria; AKT/mTOR pathway (Tg26^HE mice): profound AKT/mTOR pathway inhibition; kidney function (Tg26^HE mice): not significantly improved; expression of podocyte differentiation markers (Tg26^HE mice; vs vehicle): higher expression of podocyte differentiation markers; fibrotic markers Col1a and Col3a (Tg26^HE mice; vs vehicle): reduced expression in fibrotic markers; glomerular lesions (Tg26^HE mice; vs vehicle): less severe glomerular lesions; inflammatory marker Tnfa (Tg26^HE mice; vs vehicle): lower expression; kidney volume (Tg26^HE mice; vs vehicle): reduction in kidney volume; tubular injury markers Lcn2 and KIM1 (Tg26^HE mice; vs vehicle): lower expression of tubular injury markers; kidney to body weight ratio (MRL-lpr mice; at sacrifice, vs vehicle): tendency to have a lower kidney to body weight ratio; survival / life expectancy (Kaplan-Meier) (MRL-lpr mice; females, from 8 weeks old till death): significant extension of life expectancy; trajectory of albuminuria before and after treatment introduction (MRL-lpr mice; from 8 weeks old): proteinuria improvement; glomerular lesions, kidney examination (MRL-lpr mice; vs vehicle): no glomerular lesions; kidney function (MRL-lpr mice; vs vehicle): improved kidney function; proteinuria (urinary albumin to creatinine ratio) (MRL-lpr mice; vs vehicle): less proteinuria
